Test results taken from patent publication US4695568A, “Thieno[2,3-d]pyrimidine derivatives and salts thereof” (Mitsubishi Chemical Industries Limited, priority 1984, dated 1987).
Where two headings read alike, the source gives them in different places.

What was measured:
[1] = Acute toxicity (LD50) in male mice; details: mouse, in vivo, po
[2] = tested on: reserpine-induced hypothermia; test: Antagonistic activity against reserpine-induced hypothermia; assay type: in vivo, ddY male mice; details: Mus musculus, po, read-out: ED50 (dose exhibiting 50% antagonistic activity against reserpine hypothermia)
Protocol: A. ANTAGONISTIC ACTIVITY AGAINST RESERPINE-INDUCED HYPOTHERMIA
A test was carried out using ddY male mice of 22-25 g in body weight, one group consisting of 6 mice.
The body temperature of mice was approximately 38° C. before the test. At 4 hours after intraperitoneal administration of reserpine in an amount of 5 mg/kg the body temperature of mice was reduced by approximately 8° C. in average. The test compound was simultaneously orally administered with 5 mg/kg of reserpine, and the degree of antagonistic effect of the test compound on the hypothermal action of reserpine was measured. This test has hitherto been the commonest method for evaluating anti-depressant activity.
Percentage (%) of an antagonistic activity was calculated by varying the doses of each test compound.

[3] = tested on: passive avoidance response failure by electric shock; test: Passive avoidance response failure by electric shock as model of amnesia; assay type: in vivo; details: p.o., male Wistar rats, 3 hours or more after oral administration
From the text: B. PASSIVE AVOIDANCE RESPONSE FAILURE BY ELECTRIC SHOCK AS MODEL OF AMNESIA
The test apparatus used, called as "Two Compartment Avoidance Box", consisted of a large lit compartment and a small dark compartment having a grid floor to which an electric current can be applied, these two compartments being painted black innerly and connected to each other
Male Wistar rats of 170-220 g in body weight enter into the small box soon after they are introduced into the large box. […] This response is called as "passive avoidance response".
However, if an electric shock of 60 mA, 200 Hz for 0.8 second is given to the rat by electrodes set on both ears of the rat immediately after the rat comes out of the small box upon the application of the electric current, the "passive avoidance response" is inhibited. Indeed, the period for entering into the small box from the large box, latency, is shortened. This phenomenon is caused by loss of memory of the electric current applied from the grid floor by the electric shock. The shortened time of latency is used as an index of the loss of memory.
A memory improvement effect of a test compound is expressed in the degree of prolongation of latency (% improvement) in a test carried out 3 hours or more after the oral administration of the test compound after application of an electric shock.

[4] = mice, test compound orally, simultaneously with reserpine 5 mg/kg, body temperature at 4 hours, Litchfield-Wilcoxon method

Compound | LD50 ([1]; male mice) [mg/kg] | LD50 [1] [mg/kg] | Improvement (prolongation of latency) ([3]; 25 mg/kg) [%] | Improvement (prolongation of latency) ([3]; 100 mg/kg) [%] | ED50 [2, 4] [mg/kg] | further results
CN(C)CCC=C1c2ccccc2CCc2ccccc21 [Amitriptyline, reference compound] | 380 |  |  |  |  | ED50 ([2]; 4 h): 14.5 mg/kg
Cc1cc2c(-c3ccccc3F)nc(N3CCNCC3)nc2s1 [Example 14] |  | 1110 | 30.9 | 51.5 | 0.27 | 
Cc1cc2c(-c3ccccc3C)nc(N3CCNCC3)nc2s1 [Example 16] |  | 1400 | 12.8 | 46.6 | 0.5 | 
Cc1cc2c(-c3ccccc3Br)nc(N3CCNCC3)nc2s1 [Example 15] |  | 1750 |  |  | 2.9 | 
Cc1sc2nc(N3CCNCC3)nc(-c3ccccc3)c2c1C [Example 4, 5,6-dimethyl-4-phenyl-2-piperazinyl-thieno[2,3-d]pyrimidine] | 1330 |  |  |  | 1.8 | 
Cc1cc2c(-c3ccccc3)nc(N3CCNCC3)nc2s1 [Example 1, 6-METHYL-4-PHENYL-2-PIPERAZINYLTHIENO[2,3-d]PYRIMIDINE] |  | 1170 | 6.8 | 22.7 | 2 | 
Cc1csc2nc(N3CCNCC3)nc(-c3ccccc3)c12 [Example 5, 5-methyl-4-phenyl-2-piperazinyl-thieno[2,3-d]pyrimidine] | 275 |  |  |  | 4 | 
Clc1cc2c(-c3ccccc3)nc(N3CCNCC3)nc2s1 [Example 7, 6-chloro-4-phenyl-2-piperazinyl-thieno[2,3-d]pyrimidine] |  |  |  |  | 2.4 | 
NC(=O)CN1CCCC1=O [Piracetam, reference compound] |  |  |  |  |  | Improvement (prolongation of latency) ([3]; 250 mg/kg): 22.0%; Improvement (prolongation of latency) ([3]; 500 mg/kg): 14.1%
Cc1cc2c(-c3ccccc3C#N)nc(N3CCNCC3)nc2s1 [Example 20] |  | 370 |  |  | 1.5 | 
